{"source": "patent US12194039B2", "about": "“Methods of treating heart failure by administering omecamtiv mecarbil” (Cytokinetics, Inc., priority 2020, dated 2025)", "key": {"[1]": {"test_system": "patients with EF≤30%, without AFF, without digoxin", "format": "in vivo, human"}, "[2]": {"molecular_target": "T1, BCRP (Homo sapiens, UniProt Q9UNQ0)", "T1 sequence (Q9UNQ0 1-655)": "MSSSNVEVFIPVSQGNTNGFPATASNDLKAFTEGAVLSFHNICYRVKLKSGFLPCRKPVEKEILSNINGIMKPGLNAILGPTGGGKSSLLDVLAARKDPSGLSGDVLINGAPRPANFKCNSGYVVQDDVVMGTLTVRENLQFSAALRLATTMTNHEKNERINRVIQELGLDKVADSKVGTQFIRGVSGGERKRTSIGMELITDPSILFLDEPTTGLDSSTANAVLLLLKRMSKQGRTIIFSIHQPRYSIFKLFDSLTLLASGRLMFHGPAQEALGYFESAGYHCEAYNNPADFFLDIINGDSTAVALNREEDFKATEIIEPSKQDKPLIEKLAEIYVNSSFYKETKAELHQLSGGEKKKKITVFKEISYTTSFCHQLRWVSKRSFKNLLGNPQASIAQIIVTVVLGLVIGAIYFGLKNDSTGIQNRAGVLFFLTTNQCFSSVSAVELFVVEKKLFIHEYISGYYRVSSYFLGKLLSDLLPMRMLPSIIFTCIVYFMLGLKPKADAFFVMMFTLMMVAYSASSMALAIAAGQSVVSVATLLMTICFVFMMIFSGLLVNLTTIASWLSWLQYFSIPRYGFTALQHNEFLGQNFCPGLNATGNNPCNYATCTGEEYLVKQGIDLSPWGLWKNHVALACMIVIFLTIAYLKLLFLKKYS", "assay": "Transporter substrate assessment", "format": "in vitro ADME", "details": "result in words"}, "[3]": {"molecular_target": "P-gp (Homo sapiens, UniProt P08183)", "sequence (P08183 whole entry)": "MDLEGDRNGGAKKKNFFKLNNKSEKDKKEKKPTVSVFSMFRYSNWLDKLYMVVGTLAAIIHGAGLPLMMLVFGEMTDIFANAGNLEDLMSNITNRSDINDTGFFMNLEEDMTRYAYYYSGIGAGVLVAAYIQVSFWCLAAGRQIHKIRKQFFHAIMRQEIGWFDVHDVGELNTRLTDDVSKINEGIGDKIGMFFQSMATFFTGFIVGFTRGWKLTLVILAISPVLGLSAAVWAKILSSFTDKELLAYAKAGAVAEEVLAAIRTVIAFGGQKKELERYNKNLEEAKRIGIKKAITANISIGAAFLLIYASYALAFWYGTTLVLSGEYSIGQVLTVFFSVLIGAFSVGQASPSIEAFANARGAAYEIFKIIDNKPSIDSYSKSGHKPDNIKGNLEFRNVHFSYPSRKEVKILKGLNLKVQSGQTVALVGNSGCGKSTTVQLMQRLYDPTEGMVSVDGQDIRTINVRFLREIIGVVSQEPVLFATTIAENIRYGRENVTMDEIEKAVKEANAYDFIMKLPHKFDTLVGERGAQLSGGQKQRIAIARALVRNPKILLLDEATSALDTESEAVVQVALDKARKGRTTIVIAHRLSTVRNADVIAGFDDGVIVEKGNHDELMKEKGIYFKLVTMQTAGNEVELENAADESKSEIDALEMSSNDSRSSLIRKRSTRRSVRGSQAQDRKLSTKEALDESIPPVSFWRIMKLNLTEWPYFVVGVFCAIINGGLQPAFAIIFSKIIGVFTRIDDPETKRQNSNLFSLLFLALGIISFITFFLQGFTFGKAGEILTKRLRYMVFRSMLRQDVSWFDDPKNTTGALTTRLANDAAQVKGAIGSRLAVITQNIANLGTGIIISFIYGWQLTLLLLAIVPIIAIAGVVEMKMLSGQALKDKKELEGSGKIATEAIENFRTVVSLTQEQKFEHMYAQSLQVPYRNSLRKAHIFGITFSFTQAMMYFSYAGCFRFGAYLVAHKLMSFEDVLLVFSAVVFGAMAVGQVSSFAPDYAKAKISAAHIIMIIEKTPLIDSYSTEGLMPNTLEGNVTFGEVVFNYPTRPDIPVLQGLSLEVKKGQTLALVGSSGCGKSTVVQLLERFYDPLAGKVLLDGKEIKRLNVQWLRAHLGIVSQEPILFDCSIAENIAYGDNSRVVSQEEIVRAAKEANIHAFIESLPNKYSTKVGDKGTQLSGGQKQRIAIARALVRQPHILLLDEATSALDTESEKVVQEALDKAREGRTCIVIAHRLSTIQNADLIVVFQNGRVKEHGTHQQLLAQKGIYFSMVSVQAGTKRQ", "assay": "In vitro inhibition by OM", "format": "in vitro ADME", "details": "result in words"}, "[4]": {"molecular_target": "T2, CYP2C8 (Homo sapiens, UniProt P10632)", "T2 sequence (P10632 1-490)": "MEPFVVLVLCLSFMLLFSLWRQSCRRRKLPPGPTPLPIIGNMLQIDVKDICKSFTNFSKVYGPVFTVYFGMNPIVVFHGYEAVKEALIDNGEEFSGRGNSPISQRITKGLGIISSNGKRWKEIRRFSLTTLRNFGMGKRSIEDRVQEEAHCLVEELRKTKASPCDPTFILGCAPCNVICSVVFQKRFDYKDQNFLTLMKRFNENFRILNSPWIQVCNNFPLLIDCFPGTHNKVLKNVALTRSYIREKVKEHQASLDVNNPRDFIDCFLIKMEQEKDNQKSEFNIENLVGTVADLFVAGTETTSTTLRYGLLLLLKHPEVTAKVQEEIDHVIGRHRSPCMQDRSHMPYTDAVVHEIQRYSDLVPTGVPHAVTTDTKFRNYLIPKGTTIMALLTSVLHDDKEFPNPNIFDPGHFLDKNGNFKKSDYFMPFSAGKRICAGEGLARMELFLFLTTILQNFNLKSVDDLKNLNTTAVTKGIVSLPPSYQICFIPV", "assay": "Clinical studies and physiologically based pharmacokinetic modeling of OM as perpetrator", "format": "in vivo", "set-up": "from tissue", "details": "clinical studies and PBPK modeling; result in words"}, "[5]": {"details": "EF ≤30%, no AFF, no digoxin, OM + standard care (n = 2674)"}, "[6]": {"details": "EF ≤30%, no AFF, no digoxin, OM vs Pbo"}}}
{"smiles": "COC(=O)N1CCN(Cc2cccc(NC(=O)Nc3ccc(C)nc3)c2F)CC1", "note": "[omecamtiv mecarbil]", "values": [{"measurement": "Cumulative rate of HFEs at 36 months", "setting": "[1]; [5]", "result": "81.8/ /100 pts"}, {"measurement": "Frequency of HFE (all events)", "setting": "[1]; [5]", "result": "31.2/ /100 pt yrs"}, {"measurement": "IV Diuretics /Inotropes Nasodilators", "setting": "[1]; [5]", "result": "35.7 /100 pt yrs"}, {"measurement": "Mechanical circulatory support during HF hospitalizations", "setting": "[1]; [5]", "result": "2.2 /100 pt yrs"}, {"measurement": "Mechanical fluid removal during HF hospitalizations", "setting": "[1]; [5]", "result": "0.8 /100 pt yrs"}, {"measurement": "Time to first HFE, rate", "setting": "[1]; [5]", "result": "18.9/ /100 pt yrs"}, {"measurement": "Total days in hospital", "setting": "[1]; [5]", "result": "524.1 /100 pt yrs"}, {"measurement": "Cumulative rate of HFEs at 36 months, Rate Ratio", "setting": "[1]; [6]", "result": "Rate Ratio 0.799"}, {"measurement": "Cumulative rate of HFEs: treatment effect over time", "setting": "[1]; [6]", "result": "increasing"}, {"measurement": "Frequency of HFE (all events), ARR", "setting": "[1]; [6]", "result": "ARR 6.7/100 pt yrs"}, {"measurement": "Frequency of HFE (all events), HR", "setting": "[1]; [6]", "result": "HR 0.85,"}, {"measurement": "Frequency of HFE (all events), NNT", "setting": "[1]; [6]", "result": "NNT 14.9"}, {"measurement": "Time to first HFE, ARR", "setting": "[1]; [6]", "result": "ARR 3.8/100 pt yrs"}, {"measurement": "Time to first HFE, NNT", "setting": "[1]; [6]", "result": "NNT 26.5"}, {"measurement": "Clinical benefits and resource utilization", "setting": "[1]; EF≤30%, without AFF, without digoxin at baseline, result in words", "result": "significant clinical benefits and reductions in resource utilization"}, {"measurement": "Substrate of BCRP", "setting": "[2]", "result": "substrate"}, {"measurement": "Inhibition of P-gp", "setting": "[3]", "result": "inhibitor"}, {"measurement": "Inhibition of CYP2C8", "setting": "[4]", "result": "weak inhibitor"}]}
